Data published in PubChem BioAssay (NCI).
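Briefly, cells in 96-well plates were exposed to five compound concentrations for 48 h, and endpoints were estimated by linear interpolation. GI50 = concentration required for 50% inhibition of growth. Definition used: TGI = concentration required for complete inhibition of growth.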

Key:
Test in all cases: DTP human tumour cell line panel, 48 h
[1] = tested on: KM12 colon
[2] = tested on: OVCAR-5 ovarian
[3] = tested on: SR leukemia
[4] = tested on: CAKI-1 renal
[5] = tested on: HCT-15 colon
[6] = tested on: UACC-257 melanoma
[7] = tested on: OVCAR-8 ovarian
[8] = tested on: MCF7 breast
[9] = tested on: NCI-H226 lung
[10] = tested on: SN12C renal
[11] = tested on: MOLT-4 leukemia
[12] = tested on: TK-10 renal
[13] = tested on: HCC-2998 colon
[14] = tested on: UACC-62 melanoma
[15] = tested on: COLO 205 colon
[16] = tested on: RXF 393 renal
[17] = tested on: DU-145 prostate
[18] = tested on: HCT-116 colon
[19] = tested on: SF-295 CNS
[20] = tested on: LOX IMVI melanoma
[21] = tested on: SK-MEL-28 melanoma
[22] = tested on: T-47D breast
[23] = tested on: SF-268 CNS
[24] = tested on: SF-539 CNS
[25] = tested on: ACHN renal
[26] = tested on: NCI-H23 lung
[27] = tested on: A498 renal
[28] = tested on: A549 NSCLC
[29] = tested on: MDA-MB-231 breast
[30] = tested on: EKVX NSCLC
[31] = tested on: IGROV1 ovarian
[32] = tested on: SK-OV-3 ovarian
[33] = tested on: MDA-MB-435
[34] = tested on: HOP-62 NSCLC
[35] = tested on: SNB-19 CNS
[36] = tested on: NCI-H522 lung
[37] = tested on: SW-620 colon
[38] = tested on: U251 CNS
[39] = tested on: SK-MEL-2 melanoma
[40] = tested on: PC-3 prostate
[41] = tested on: 786-0 renal
[42] = tested on: HT29 colon
[43] = tested on: M14 melanoma
[44] = tested on: HS 578T breast
[45] = tested on: BT-549 breast
[46] = tested on: HL-60(TB) leukemia
[47] = tested on: NCI/ADR-RES ovarian
[48] = tested on: UO-31 renal
[49] = tested on: MALME-3M melanoma
[50] = tested on: HOP-92 NSCLC
[51] = tested on: SK-MEL-5 melanoma
[52] = tested on: SNB-75 CNS
[53] = tested on: NCI-H460 lung
[54] = tested on: OVCAR-3 ovarian
[55] = tested on: OVCAR-4 ovarian
[56] = tested on: K-562 leukemia
[57] = tested on: CCRF-CEM leukemia
[58] = tested on: RPMI-8226 leukemia

## COc1cc(/C=C2\SC(N3CCCCC3)=NC2=O)ccc1OCCCCCCOc1ccc(/C=C2\SC(N3CCCCC3)=NC2=O)cc1OC
[1]
  GI50: 11.1 µM
  TGI: 25 µM
[2]
  GI50: 22.9 µM
  TGI: 59.1 µM
[3]
  GI50: 9.16 µM
  TGI: 65.8 µM
[4]
  GI50: 22.7 µM
  TGI: 84.7 µM
[5]
  GI50: 15.2 µM
  TGI: 53.1 µM
[6]
  GI50: 17.4 µM
  TGI: 47.6 µM
[7]
  GI50: 4.95 µM
  TGI: 31.1 µM
[8]
  GI50: 15.1 µM
  TGI: 44.9 µM
[9]
  GI50: 5.18 µM
  TGI: 22 µM
[10]
  GI50: 19 µM
  TGI: > 100 µM
[11]
  GI50: 17.4 µM
  TGI: > 100 µM
[12]
  GI50: 11.5 µM
  TGI: 27.9 µM
[13]
  GI50: 13.6 µM
  TGI: 27 µM
[14]
  GI50: 16.1 µM
  TGI: 67.1 µM
[15]
  GI50: 19.9 µM
  TGI: > 100 µM
[16]
  GI50: 4.94 µM
  TGI: 16.9 µM
[17]
  GI50: 5.26 µM
  TGI: 17.6 µM
[18]
  GI50: 12.6 µM
  TGI: 31.2 µM
[19]
  GI50: 13.7 µM
  TGI: 47.5 µM
[20]
  GI50: 8.35 µM
  TGI: 35.7 µM
[21]
  GI50: 15.7 µM
  TGI: 43.9 µM
[22]
  GI50: 8.9 µM
  TGI: 44.5 µM
[23]
  GI50: 4.2 µM
  TGI: 17.6 µM
[24]
  GI50: 6.95 µM
  TGI: 24.2 µM
[25]
  GI50: 15.1 µM
  TGI: 34.2 µM
[26]
  GI50: 12.6 µM
  TGI: 40.9 µM
[27]
  GI50: 12.8 µM
  TGI: 46.2 µM
[28]
  GI50: 11.8 µM
  TGI: 30.9 µM
[29]
  GI50: 2.13 µM
  TGI: 21 µM
[30]
  GI50: 12 µM
  TGI: 76.6 µM
[31]
  GI50: 11.1 µM
  TGI: 43 µM
[32]
  GI50: 4.91 µM
  TGI: 17.4 µM
[33]
  GI50: 10.8 µM
  TGI: 79.1 µM
[34]
  GI50: 4.05 µM
  TGI: 16.3 µM
[35]
  GI50: 9.58 µM
  TGI: 39.7 µM
[36]
  GI50: 3.18 µM
  TGI: 22 µM
[37]
  GI50: 14.9 µM
  TGI: 48.3 µM
[38]
  GI50: 4.61 µM
  TGI: 16.1 µM
[39]
  GI50: 21.8 µM
  TGI: 93.9 µM
[40]
  GI50: 12.4 µM
  TGI: 56.7 µM
[41]
  GI50: 7.71 µM
  TGI: 27.8 µM
[42]
  GI50: 8.38 µM
  TGI: 30.4 µM
[43]
  GI50: 21.9 µM
  TGI: > 100 µM
[44]
  GI50: 3.74 µM
  TGI: 25.7 µM
[45]
  GI50: 4.29 µM
  TGI: 22.8 µM
[46]
  GI50: 14.6 µM
  TGI: 84.4 µM
[47]
  GI50: 9.11 µM
  TGI: 28.2 µM
[48]
  GI50: 13.2 µM
  TGI: 39.3 µM
[49]
  GI50: 3.87 µM
  TGI: 30 µM
[50]
  GI50: 2.47 µM
  TGI: 8.95 µM
[51]
  GI50: 9.35 µM
  TGI: 28.2 µM
[52]
  GI50: 2.34 µM
  TGI: 6.4 µM
[53]
  GI50: 6.84 µM
  TGI: 23.8 µM
[54]
  GI50: 6.04 µM
  TGI: 18.7 µM

## Cc1cc(NS(=O)(=O)c2ccc(N=[N+]([O-])c3ccc(S(=O)(=O)Nc4cc(C)on4)cc3)cc2)no1
[2]
  TGI: > 100 µM
[3]
  TGI: > 100 µM
[4]
  TGI: > 100 µM
[5]
  TGI: > 100 µM
[6]
  TGI: > 100 µM
[7]
  TGI: > 100 µM
[8]
  TGI: > 100 µM
[9]
  TGI: > 100 µM
[10]
  TGI: > 100 µM
[11]
  TGI: > 100 µM
[12]
  TGI: > 100 µM
[14]
  TGI: > 100 µM
[15]
  TGI: > 100 µM
[16]
  TGI: > 100 µM
[55]
  TGI: > 100 µM
[17]
  TGI: > 100 µM
[18]
  TGI: > 100 µM
[19]
  TGI: > 100 µM
[20]
  TGI: > 100 µM
[56]
  TGI: > 100 µM
[22]
  TGI: > 100 µM
[23]
  TGI: > 100 µM
[24]
  TGI: > 100 µM
[25]
  TGI: > 100 µM
[26]
  TGI: > 100 µM
[27]
  TGI: > 100 µM
[28]
  TGI: > 100 µM
[29]
  TGI: > 100 µM
[30]
  TGI: > 100 µM
[31]
  TGI: > 100 µM
[57]
  TGI: > 100 µM
[32]
  TGI: > 100 µM
[33]
  TGI: > 100 µM
[34]
  TGI: > 100 µM
[35]
  TGI: > 100 µM
[36]
  TGI: > 100 µM
[38]
  TGI: > 100 µM
[39]
  TGI: > 100 µM
[40]
  TGI: > 100 µM
[41]
  TGI: > 100 µM
[42]
  TGI: > 100 µM
[43]
  TGI: > 100 µM
[44]
  TGI: > 100 µM
[45]
  TGI: > 100 µM
[46]
  TGI: > 100 µM
[47]
  TGI: > 100 µM
[48]
  TGI: > 100 µM
[49]
  TGI: > 100 µM
[50]
  TGI: > 100 µM
[51]
  TGI: > 100 µM
[58]
  TGI: > 100 µM
[52]
  TGI: > 100 µM
[54]
  TGI: > 100 µM
